Source: patent EP4786487A1, “PEPTIDE” (Peptidream Inc, priority 2023, dated 2025)
Starred links: 1 amine or outer side, 2 acyl side, 3 side chain; linkers in the order of their positions; H or OH if unused. Positions of bridges follow the written chain, without caps; N, C: chain ends. Non-standard residues stand in square brackets, D forms with d. Residues, ends and D or L forms follow the SMILES beside them. Phe(3-OCH2COOH) = N[C@@H](Cc1cccc(OCC(=O)O)c1)C(=O)O; Phe(4-COOH) = N[C@@H](Cc1ccc(C(=O)O)cc1)C(=O)O; Gly(N(CH2)3COOH) = O=C(O)CCCNCC(=O)O; X1 = CCCCCCC[C@H](N[*:1])C(=O)[*:2]; NMeF = CN[C@@H](Cc1ccccc1)C(=O)O; NMeA = CN[C@@H](C)C(=O)O

What was measured:
Format in all cases: cell-based
Myostatin [1] = assay: Reporter gene assay for myostatin signaling in HEK-Blue TGF-β Cells, myostatin
Procedure: (§1) In this Example, the in vitro activity of the peptide Myostatin_99_v145 (SEQ ID NO: 30) was evaluated using a reporter gene assay for myostatin signaling.
(§2) HEK-Blue (trademark) TGF-β Cells (hkb-tgfbv2, InvivoGen) were cultured in DMEM High glucose GlutaMAX (10569010, Thermo) containing 10% FBS (Heat-inactivated FBS QUALIFIED, 10270-106, Gibco), […] Normocin (ant-nr-05, InvivoGen), […] Zeocin (ant-zn-05, InvivoGen), and 50 µg/mL Gentamicin (11980-14, Nacalai Tesque). The cultured HEK-Blue (trademark) TGF-β Cells were suspended in an assay medium containing DMEM High glucose GlutaMAX, 50 µg/mL Gentamicin, and 1% bovine serum albumin (A7030, Sigma). The cells were seeded at 4 × 10^4 cells/well onto a 96-well plate (356461, Corning), namely BioCoat poly-D-lysine multi-well plate, and allowed to stand for 30 min.
(§3) A 4-fold dilution series of the peptide, namely Myostatin_99_v145 (SEQ ID NO: 30), synthesized according to Example 1, the final concentration of which was from 0.006 nmol/L up to a maximum concentration of 0.1 µmol/L for the myostatin inhibitory activity test, was added to a 96-well U-bottom Non-Binding MicroPlate (650901, Greiner). For the GDF-11 or activin A inhibitory activity test, a 4-fold dilution series, the final concentration of which was from 0.12 nmol/L to a maximum concentration of 2 µmol/L, was added to a 96-well U-bottom Non-Binding MicroPlate (650901, Greiner).
(§4) Subsequently, myostatin (788-G8/CF, R&D systems), GDF-11 (1958-GD-G8/CF, R&D systems), or activin A (338-AC-010/CF, R&D systems) was each added at a final concentration of 3 ng/mL. The plate was sealed with Parafilm, and incubated in a CO2 incubator (37°C, 5% CO2) for 30 min. The samples were added at 50 µL/well to a plate containing HEK-Blue (trademark) TGF-β Cells, and incubated in a CO2 incubator (37°C, 5% CO2) for 24 hours.
(§5) To each well of a UV-Star µClear 96-well (655801, Greiner), 180 µL of Detection buffer (prepared by diluting, with 17.64 mL of distilled water, 180 µL of QUANTI-Blue buffer and 180 µL of QUANTI-Blue solution) was dispensed. Here, 20 µL of the supernatant of the culture medium was transferred to the above Detection buffer and stirred with a shaker for 1 min. The plate was covered and incubated in a CO2 incubator for 3 to 5 hours, and absorbance was measured (Envision 2104, PerkinElmer, 620 nm/bp 40 nm). Based on the absorbance, IC50 values of the peptide were calculated using software (Prism 9, GraphPad).

Myostatin [2] = molecular target: T1, Myostatin (Homo sapiens, UniProt O14793); assay: as above; settings: myostatin 3 ng/mL
T1 construct: active myostatin (also called mature myostatin) is a homodimer consisting of two C-terminal growth factor domains; purchased R&D systems 788-G8/CF
T1 sequence (O14793 267-375): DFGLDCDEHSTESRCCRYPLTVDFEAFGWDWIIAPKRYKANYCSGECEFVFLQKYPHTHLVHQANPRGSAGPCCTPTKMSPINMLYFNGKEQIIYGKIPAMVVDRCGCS
Procedure: as §1, §2, §3, §4, §5

GDF-11 = molecular target: T2, GDF-11 (Homo sapiens, UniProt O95390); assay: Reporter gene assay for myostatin signaling in HEK-Blue TGF-β Cells, GDF-11; settings: GDF-11 3 ng/mL
T2 construct: purchased R&D systems 1958-GD-G8/CF
T2 sequence (O95390 299-407): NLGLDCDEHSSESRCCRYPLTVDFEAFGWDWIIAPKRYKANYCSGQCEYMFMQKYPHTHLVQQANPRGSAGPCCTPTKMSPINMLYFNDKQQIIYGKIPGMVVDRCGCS
Procedure: as §1
as §2, with “min. […]” for “min.”
as §5, with “Here, 20 µL of the supernatant of the culture medium was transferred to the above Detection buffer and stirred with a shaker for 1 min.” left out

Myostatin [3] = assay: Reporter gene assay for myostatin signaling in HepG2 cell line, Evaluation Procedure (1), myostatin inhibition; settings: Method A; GDF-11 IC50 versus Myostatin IC50
How it was run: (§6)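 HepG2 cells transfected with pGL3(CAGA)12-luciferase reporter, serum-starved in 0.1% BSA medium, then stimulated with myostatin or GDF-11 plus 4-fold peptide dilutions (0.006–100 nmol/L for myostatin, 0.12–2000 nmol/L for GDF-11) for 20–24 h at 37 °C. Luminescence read with One-Glo; IC50 calculated.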

Myostatin [4] = molecular target: T1, Myostatin; assay: as above; settings: Method A: Myostatin 10 ng/mL; read-out: IC50 (Luciferase) Myostatin HepG2
How it was run: as §6

IC50 (Myostatin [2]; read-out: IC50 (nmol/L) Myostatin): 0.23 nmol/L
IC90 (Myostatin [2]; read-out: IC90 (nmol/L) Myostatin): 0.64 nmol/L
IC50 (GDF-11; read-out: IC50 (nmol/L) GDF11): 61.2 nmol/L
IC90 (GDF-11; read-out: IC90 (nmol/L) GDF11): 702 nmol/L
IC50 (Myostatin [4]): 1.6 nM
Compound: CCCCCCC[C@@H]1NC(=O)[C@H](Cc2ccccc2)N(C)C(=O)[C@H](CCCNC(=N)N)NC(=O)[C@H](Cc2ccc(C(=O)O)cc2)NC(=O)[C@H](Cc2cccc(OCC(=O)O)c2)NC(=O)[C@H](C)N(C)C(=O)[C@H]([C@@H](C)CC)NC(=O)[C@H](Cc2ccccc2)N(C)C(=O)[C@H](Cc2ccc(O)cc2)NC(=O)[C@H](Cc2c[nH]c3ccccc23)NC(=O)[C@H](C)NC(=O)CN(CCCC(=O)O)C(=O)CSC[C@H](C(=O)O)NC(=O)[C@H](Cc2ccccc2)N(C)C(=O)[C@H](C)N(C)C1=O [Myostatin_99_v145] ({CH2CO}-[Gly(N(CH2)3COOH)]AWY[NMeF]I[NMeA][Phe(3-OCH2COOH)][Phe(4-COOH)]R[NMeF][X1][NMeA][NMeF][dC]-OH; thioether N-15)
Selectivity (GDF11/myostatin) (Myostatin [1]; from IC50): 270
Selectivity (GDF11/myostatin) (Myostatin [1]; from IC90): 1,088
Selectivity (Myostatin [3]): 259
